Structures can show the parent of a compound that is named as a salt. Where two headings read alike, the source gives them in different places.
What was measured:
[1] = molecular target: purified human recombinant ATM (ataxia telangiectasia mutated), full length (Homo sapiens (Human), UniProt Q13315); test: ATM kinase assay - determination of ATM inhibition (IC50 ATM), TR-FRET; type: biochemical
Procedure, shortened: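 Full-length enzyme, expressed in a mammalian cell line, pre-incubated 15 min with inhibitor in 25 mM HEPES pH 8.0, 10 mM Mg(CH3COO)2, 1 mM MnCl2, 0,1% BSA, 0,01% Brij 35, 5 mM DTT. Full-length cmyc-p53 (Sf21-expressed) and ATP then added, 30-35 min at 22° C. EDTA stop; p53 S15 phosphorylation read by TR-FRET antibodies.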

[2] = tested on: phosphorylation of CHK2 (phospho-Thr68) in HCT116 cells; test: Cellular pCHK2 assay: bleomycin-induced phosphorylation of CHK2 (phospho-Thr68), immunofluorescence high-content analysis; type: cell-based, human; conditions: Homo sapiens, HCT-116, 4 h, read-out: IC50 (pCHK2)
Procedure, shortened: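 HCT116 cells in DMEM with 10% FCS, incubated overnight at 37° C, then given compounds (1 nM to 30 μM, 0.5% DMSO) together with 10 μM bleomycin. Phospho-Thr68 CHK2 immunostained and imaged by high-content imager; nuclei with pCHK2 above background counted, cell count from propidium iodide DNA stain.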

mTOR (human) = mTOR (human) (Homo sapiens (Human), UniProt P42345); test: mTOR (human) kinase assay, [γ-33P-ATP] filter assay; type: biochemical
Procedure, shortened: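 Radiometric filter assay: enzyme in 50 mM HEPES pH 7.5, 1 mM EGTA, 0.01% Tween 20, 3 mM MnCl2, 2 mg/ml substrate with [γ-33P-ATP], started with MgATP. Incubated 40 min at room temperature, stopped with 3% phosphoric acid; incorporation measured on P30 filtermat by scintillation counting.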

PI3K p110α/p85α (human) = PI3K p110α/p85α (human) (Homo sapiens (Human), UniProt P42336); test: PI3K p110α/p85α (human), non-radioactive assay (HTRF); type: biochemical; conditions: read-out: IC50 (PI3Kalpha)
Chain of PI3K p110α/p85α (human) (P42336 whole entry): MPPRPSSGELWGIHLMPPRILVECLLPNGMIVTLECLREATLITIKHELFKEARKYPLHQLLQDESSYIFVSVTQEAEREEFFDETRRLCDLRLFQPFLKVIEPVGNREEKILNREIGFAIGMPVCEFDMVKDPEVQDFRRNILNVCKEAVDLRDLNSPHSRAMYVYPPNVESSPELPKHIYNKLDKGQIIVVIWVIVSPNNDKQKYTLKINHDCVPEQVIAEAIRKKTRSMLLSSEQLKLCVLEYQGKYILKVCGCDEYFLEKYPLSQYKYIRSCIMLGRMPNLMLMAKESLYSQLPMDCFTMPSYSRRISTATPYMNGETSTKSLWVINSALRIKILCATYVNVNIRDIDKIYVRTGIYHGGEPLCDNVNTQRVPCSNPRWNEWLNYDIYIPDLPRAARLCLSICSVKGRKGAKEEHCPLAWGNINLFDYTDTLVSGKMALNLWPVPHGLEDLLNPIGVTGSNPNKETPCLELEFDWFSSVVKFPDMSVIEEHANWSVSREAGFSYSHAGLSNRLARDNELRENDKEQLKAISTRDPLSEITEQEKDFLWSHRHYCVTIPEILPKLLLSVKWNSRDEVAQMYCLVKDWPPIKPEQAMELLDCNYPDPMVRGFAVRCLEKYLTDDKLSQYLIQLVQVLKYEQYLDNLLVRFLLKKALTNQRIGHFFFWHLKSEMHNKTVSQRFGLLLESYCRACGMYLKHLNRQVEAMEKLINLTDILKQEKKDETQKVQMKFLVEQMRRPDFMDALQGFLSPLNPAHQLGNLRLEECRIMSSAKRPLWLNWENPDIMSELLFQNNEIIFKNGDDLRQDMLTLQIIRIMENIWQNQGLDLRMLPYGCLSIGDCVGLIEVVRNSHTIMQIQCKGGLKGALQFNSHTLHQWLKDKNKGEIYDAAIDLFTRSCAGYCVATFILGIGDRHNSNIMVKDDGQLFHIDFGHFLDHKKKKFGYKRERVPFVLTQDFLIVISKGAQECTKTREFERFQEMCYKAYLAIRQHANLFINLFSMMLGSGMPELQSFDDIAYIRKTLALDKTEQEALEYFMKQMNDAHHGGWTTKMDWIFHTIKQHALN
Chain of PI3K p110α/p85α (human) (P27986 whole entry partner): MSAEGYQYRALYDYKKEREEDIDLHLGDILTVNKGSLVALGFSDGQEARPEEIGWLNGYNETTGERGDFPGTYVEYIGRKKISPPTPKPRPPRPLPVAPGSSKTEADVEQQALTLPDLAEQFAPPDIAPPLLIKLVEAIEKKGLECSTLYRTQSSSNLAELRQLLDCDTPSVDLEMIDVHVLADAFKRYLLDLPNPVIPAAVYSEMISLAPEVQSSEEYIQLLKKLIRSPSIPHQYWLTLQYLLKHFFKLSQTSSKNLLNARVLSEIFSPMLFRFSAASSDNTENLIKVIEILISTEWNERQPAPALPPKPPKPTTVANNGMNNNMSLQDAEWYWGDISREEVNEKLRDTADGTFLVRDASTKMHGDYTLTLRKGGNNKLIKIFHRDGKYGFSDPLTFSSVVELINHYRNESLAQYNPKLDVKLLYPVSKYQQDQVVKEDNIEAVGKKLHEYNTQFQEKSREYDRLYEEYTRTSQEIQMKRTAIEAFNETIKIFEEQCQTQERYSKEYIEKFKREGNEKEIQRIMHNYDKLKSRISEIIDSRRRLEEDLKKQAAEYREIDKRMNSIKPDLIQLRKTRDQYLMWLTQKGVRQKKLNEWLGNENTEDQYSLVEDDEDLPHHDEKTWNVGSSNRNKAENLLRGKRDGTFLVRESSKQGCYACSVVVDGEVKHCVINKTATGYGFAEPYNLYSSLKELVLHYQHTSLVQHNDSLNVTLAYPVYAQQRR

PI3K p110β/p85α (human) = PI3K p110β/p85α (human) (Homo sapiens (Human), UniProt P42338); test: PI3K p110β/p85α (human), non-radioactive assay (HTRF); type: biochemical; conditions: read-out: IC50 (PI3Kbeta)
Chain of PI3K p110β/p85α (human) (P42338 whole entry, the tested form may be a part): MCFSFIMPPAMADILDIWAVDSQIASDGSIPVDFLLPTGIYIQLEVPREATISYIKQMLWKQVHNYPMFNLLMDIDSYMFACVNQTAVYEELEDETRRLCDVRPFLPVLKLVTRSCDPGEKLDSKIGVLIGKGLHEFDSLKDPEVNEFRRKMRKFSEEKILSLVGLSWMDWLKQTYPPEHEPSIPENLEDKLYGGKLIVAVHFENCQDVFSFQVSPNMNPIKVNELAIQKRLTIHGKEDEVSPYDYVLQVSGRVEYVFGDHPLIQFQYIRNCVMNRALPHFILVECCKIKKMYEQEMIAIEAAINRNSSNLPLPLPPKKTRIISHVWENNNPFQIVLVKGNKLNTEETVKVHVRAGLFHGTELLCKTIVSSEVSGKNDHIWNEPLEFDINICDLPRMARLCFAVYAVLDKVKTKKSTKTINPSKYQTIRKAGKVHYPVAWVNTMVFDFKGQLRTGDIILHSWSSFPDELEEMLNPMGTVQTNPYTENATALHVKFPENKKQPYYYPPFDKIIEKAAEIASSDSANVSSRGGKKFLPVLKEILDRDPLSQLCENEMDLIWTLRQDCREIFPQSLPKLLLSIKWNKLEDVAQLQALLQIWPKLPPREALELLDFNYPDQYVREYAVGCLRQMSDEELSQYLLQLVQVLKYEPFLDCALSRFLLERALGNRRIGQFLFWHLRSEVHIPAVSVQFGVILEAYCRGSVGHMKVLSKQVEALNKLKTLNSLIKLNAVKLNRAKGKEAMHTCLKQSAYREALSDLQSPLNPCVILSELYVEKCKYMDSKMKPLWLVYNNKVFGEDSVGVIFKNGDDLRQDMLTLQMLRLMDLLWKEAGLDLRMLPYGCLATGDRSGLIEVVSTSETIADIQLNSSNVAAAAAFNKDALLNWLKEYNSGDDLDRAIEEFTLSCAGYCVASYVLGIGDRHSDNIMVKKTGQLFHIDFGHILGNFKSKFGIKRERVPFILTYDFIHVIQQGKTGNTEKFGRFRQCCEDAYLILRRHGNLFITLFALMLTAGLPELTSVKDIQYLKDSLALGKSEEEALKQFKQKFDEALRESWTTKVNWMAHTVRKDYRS
Chain of PI3K p110β/p85α (human) (P27986 whole entry partner, the tested form may be a part): as the sequence (P27986 whole entry partner) above
Procedure, shortened: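 Human p110β/p85α incubated with 10 μM phosphatidylinositol 4,5-bisphosphate and MgATP for 30 min at room temperature, stopped with EDTA plus biotinylated PIP3. HTRF detection used a Eu-anti-GST antibody, GST-GRP1 PH domain and streptavidin-APC, with signal taken as 10000×(Em665nm/Em620nm).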

PI3K p110δ/p85α (human) = PI3K p110δ/p85α (human) (Homo sapiens (Human), UniProt O00329); test: PI3K p110δ/p85α (human), non-radioactive assay (HTRF); type: biochemical; conditions: read-out: IC50 (PI3Kdelta)
Chain of PI3K p110δ/p85α (human) (O00329 whole entry): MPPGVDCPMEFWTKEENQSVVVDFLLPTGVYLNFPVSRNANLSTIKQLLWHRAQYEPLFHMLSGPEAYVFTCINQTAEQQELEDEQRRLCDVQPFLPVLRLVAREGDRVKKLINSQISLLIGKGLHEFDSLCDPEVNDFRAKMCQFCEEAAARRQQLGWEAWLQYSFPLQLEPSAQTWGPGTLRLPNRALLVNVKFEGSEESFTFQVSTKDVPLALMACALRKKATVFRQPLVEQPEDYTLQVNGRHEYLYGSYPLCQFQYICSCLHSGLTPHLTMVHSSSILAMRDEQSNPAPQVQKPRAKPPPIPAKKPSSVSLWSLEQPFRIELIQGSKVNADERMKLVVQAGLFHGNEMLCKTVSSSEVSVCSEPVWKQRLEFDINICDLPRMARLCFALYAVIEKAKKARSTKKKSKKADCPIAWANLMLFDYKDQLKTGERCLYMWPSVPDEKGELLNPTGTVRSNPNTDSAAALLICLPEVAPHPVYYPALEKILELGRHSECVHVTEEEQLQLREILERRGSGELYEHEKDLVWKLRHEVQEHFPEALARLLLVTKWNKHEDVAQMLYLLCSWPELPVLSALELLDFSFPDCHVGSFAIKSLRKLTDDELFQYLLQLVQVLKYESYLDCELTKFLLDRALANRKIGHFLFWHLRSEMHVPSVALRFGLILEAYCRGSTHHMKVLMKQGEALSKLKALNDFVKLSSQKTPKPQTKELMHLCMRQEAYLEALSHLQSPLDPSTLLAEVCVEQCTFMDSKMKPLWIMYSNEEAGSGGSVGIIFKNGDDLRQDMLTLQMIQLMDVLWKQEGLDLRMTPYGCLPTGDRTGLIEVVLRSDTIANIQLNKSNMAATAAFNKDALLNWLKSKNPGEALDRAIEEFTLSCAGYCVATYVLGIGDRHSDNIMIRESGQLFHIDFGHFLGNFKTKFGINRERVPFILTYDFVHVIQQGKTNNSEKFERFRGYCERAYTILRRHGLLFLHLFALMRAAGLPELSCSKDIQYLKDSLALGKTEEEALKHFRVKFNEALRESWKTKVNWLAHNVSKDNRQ
Chain of PI3K p110δ/p85α (human) (P27986 whole entry partner): as the sequence (P27986 whole entry partner) above

PI3K (p120γ) (human) = PI3K (p120γ) (human) (Homo sapiens (Human), UniProt P48736); test: PI3K (p120γ) (human), non-radioactive assay (HTRF); type: biochemical; conditions: read-out: IC50 (PI3Kgamma)
Chain of PI3K (p120γ) (human) (P48736 whole entry, the tested form may be a part): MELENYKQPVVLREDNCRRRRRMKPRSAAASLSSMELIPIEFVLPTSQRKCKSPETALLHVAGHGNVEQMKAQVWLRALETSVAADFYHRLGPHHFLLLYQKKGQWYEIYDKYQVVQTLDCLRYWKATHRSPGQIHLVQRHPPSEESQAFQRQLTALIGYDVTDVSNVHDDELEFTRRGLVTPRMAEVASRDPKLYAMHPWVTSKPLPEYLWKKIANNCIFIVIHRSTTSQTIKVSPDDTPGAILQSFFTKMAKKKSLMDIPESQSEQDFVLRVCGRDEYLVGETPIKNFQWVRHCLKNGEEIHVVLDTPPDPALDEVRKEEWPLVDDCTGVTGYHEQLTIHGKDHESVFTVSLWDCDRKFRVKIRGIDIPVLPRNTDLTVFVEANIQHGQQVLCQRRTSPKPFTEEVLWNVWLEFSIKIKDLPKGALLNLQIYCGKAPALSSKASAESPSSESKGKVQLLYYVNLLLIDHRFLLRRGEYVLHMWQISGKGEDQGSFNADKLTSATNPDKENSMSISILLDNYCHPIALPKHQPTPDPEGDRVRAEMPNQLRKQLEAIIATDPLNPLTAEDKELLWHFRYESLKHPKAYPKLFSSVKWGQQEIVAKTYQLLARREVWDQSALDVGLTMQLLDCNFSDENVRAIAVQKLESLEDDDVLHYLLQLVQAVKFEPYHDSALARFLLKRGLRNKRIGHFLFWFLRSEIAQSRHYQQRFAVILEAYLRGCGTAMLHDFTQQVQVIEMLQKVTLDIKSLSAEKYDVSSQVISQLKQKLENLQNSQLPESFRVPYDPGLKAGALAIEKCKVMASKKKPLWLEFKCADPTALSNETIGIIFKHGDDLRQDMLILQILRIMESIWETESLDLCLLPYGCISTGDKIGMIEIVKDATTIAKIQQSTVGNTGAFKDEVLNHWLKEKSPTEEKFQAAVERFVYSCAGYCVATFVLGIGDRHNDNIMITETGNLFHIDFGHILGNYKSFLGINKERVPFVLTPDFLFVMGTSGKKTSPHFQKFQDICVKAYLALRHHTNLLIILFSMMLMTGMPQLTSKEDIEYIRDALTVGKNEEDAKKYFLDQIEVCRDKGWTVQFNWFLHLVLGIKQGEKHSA
Procedure, shortened: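 Enzyme was run with 10 μM phosphatidylinositol 4,5-bisphosphate, starting the reaction with MgATP at an unspecified level, for 30 min at room temperature. The stop used EDTA plus biotinylated PIP3, and detection used Eu-anti-GST, GST-GRP1 PH domain and streptavidin-APC. Signal was taken as HTRF = 10000×(Em665nm/Em620nm).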

| SMILES | IC50 [1] [nM] | IC50 ([1]; 10 μM ATP, substrate p53) [nM] | IC50 [2] [nM] | IC50 (mTOR (human)) [µM] | IC50 (PI3K p110α/p85α (human)) [µM] | IC50 (PI3K p110β/p85α (human)) [µM] | IC50 (PI3K p110δ/p85α (human)) [µM] | IC50 (PI3K (p120γ) (human)) [µM] |
| --- | --- | --- | --- | --- | --- | --- | --- | --- |
| COc1cc2ncc3c(c2cc1-c1cnn(C)c1)n(-c1nccs1)c(=O)n3C [Compound Example 47, 7-Methoxy-3-methyl-8-(1-methyl-1H-pyrazol-4-yl)-1-thiazol-2-yl-1,3-dihydro-imidazo[4,5-c]quinolin-2-one] | < 10 | < 10 | 200 to 1000 | > 30 | > 30 | > 30 | > 30 | > 30 |
| COc1cc2ncc3c(c2cc1-c1cnn(C)c1)n(-c1ccncc1C)c(=O)n3C [Compound Example 40, 7-Methoxy-3-methyl-8-(1-methyl-1H-pyrazol-4-yl)-1-(3-methylpyridin-4-yl)-1,3-dihydroimidazo[4,5-c] quinolin-2-one] | < 10 | < 10 | 200 to 1000 | > 30 | > 30 | > 30 | > 30 | > 30 |
| COc1cc2ncc3c(c2cc1-c1cn[nH]c1)n(-c1ncc(C)cc1F)c(=O)n3C [Compound Example 20, 1-(3-Fluoro-5-methylpyridin-2-yl)-7-methoxy-3-methyl-8-(1H-pyrazol-4-yl)-1,3-dihydroimidazo[4,5-c] quinolin-2-one] | < 1 | < 1 | < 200 | > 30 | > 30 | > 30 | > 30 | > 30 |
| COc1cc2ncc3c(c2cc1-c1cn(C)nc1C)n(-c1ncc(F)cc1F)c(=O)n3C [Compound Example 11, 1-(3,5-Difluoropyridin-2-yl)-8-(1,3-dimethyl-1H-pyrazol-4-yl)-7-methoxy-3-methyl-1,3-dihydroimidazo[4,5-c]-quinolin-2-one] | < 1 | < 1 | < 200 | > 30 | > 30 | > 30 | > 30 | > 30 |
| COc1cc2ncc3c(c2cc1-c1cnn(C)c1)n(-c1ncncc1F)c(=O)n3C [Compound Example 31, 1-(5-Fluoropyrimidin-4-yl)-7-methoxy-3-methyl-8-(1-methyl-1H-pyrazol-4-yl)-1H,2H,3H-imidazo[4,5-c] quinolin-2-one hydrochloride] | < 10 | < 10 | < 200 | > 30 | > 30 | > 30 | > 30 | > 30 |
| COc1cc2ncc3c(c2cc1-c1cn[nH]c1)n(-c1ncccc1F)c(=O)n3C [Compound Example 7, 1-(3-Fluoropyridin-2-yl)-7-methoxy-3-methyl-8-(1H-pyrazol-4-yl)-1,3-dihydro-imidazo[4,5-c]quinolin-2-one] | < 1 | < 1 | < 200 | > 30 | > 30 | > 30 | > 30 | > 30 |
| CCc1cncc(F)c1-n1c(=O)n(C)c2cnc3cc(OC)c(-c4cnn(CC)c4)cc3c21 [Compound Example 25, 1-(3-Ethyl-5-fluoropyridin-4-yl)-8-(1-ethyl-1H-pyrazol-4-yl)-7-methoxy-3-methyl-1,3-dihydroimidazo[4,5-c] quinolin-2-one] | < 1 | < 1 | < 200 | > 30 | > 30 | > 30 | > 30 | > 30 |
| COc1cc2ncc3c(c2cc1-c1cnn(C)c1)n(-c1ncccc1F)c(=O)n3C [Compound Example 14, 1-(3-Fluoropyridin-2-yl)-7-methoxy-3-methyl-8-(1-methyl-1H-pyrazol-4-yl)-1,3-dihydroimidazo[4,5-c]-quinolin-2-one] | < 1 | < 1 | < 200 | > 30 | > 30 | > 30 | > 30 | > 30 |
| COc1cc2ncc3c(c2cc1-c1cnn(C)c1)n(-c1ncc(C)cc1F)c(=O)n3C [Compound Example 27, 1-(3-Fluoro-5-methylpyridin-2-yl)-7-methoxy-3-methyl-8-(1-methyl-1H-pyrazol-4-yl)-1,3-dihydroimidazo[4,5-c] quinolin-2-one] | < 1 | < 1 | < 200 | > 30 | > 30 | > 30 | > 30 | > 30 |
| CCn1cc(-c2cc3c(cc2OC)ncc2c3n(-c3ccncc3F)c(=O)n2C)cn1 [Compound Example 33, 8-(1-Ethyl-1H-pyrazol-4-yl)-1-(3-fluoropyridin-4-yl)-7-methoxy-3-methyl-1,3-dihydroimidazo[4,5-c] quinolin-2-one] | < 1 | < 1 | < 200 | > 30 | > 30 | > 30 | > 30 | > 30 |
| COc1cc2ncc3c(c2cc1-c1cnn(C)c1)n(-c1c(F)cncc1C#N)c(=O)n3C [Compound Example 44, 5-Fluoro-4-[7-methoxy-3-methyl-8-(1-methyl-1H-pyrazol-4-yl)-2-oxo-2,3-dihydroimidazo[4,5-c]-quinolin-1-yl]nicotinonitrile] | < 10 | < 10 | 200 to 1000 | > 30 | > 30 | > 30 | > 30 | > 30 |
| COc1cc2ncc3c(c2cc1-c1cnn(C)c1)n(-c1cn[nH]c1)c(=O)n3C [Compound Example 53, 7-Methoxy-3-methyl-8-(1-methyl-1H-pyrazol-4-yl)-1-(1H-pyrazol-4-yl)-1,3-dihydroimidazo[4,5-c]-quinolin-2-one] | < 10 | < 10 | 200 to 1000 | > 30 | > 30 | > 30 | > 30 | > 30 |
| COc1cc2ncc3c(c2cc1-c1cn(C)nn1)n(-c1ncccc1F)c(=O)n3C [Compound Example 51, 1-(3-Fluoropyridin-2-yl)-7-methoxy-3-methyl-8-(1-methyl-1H-1,2,3-triazol-4-yl)-1,3-dihydroimidazo-[4,5-c]quinolin-2-one] | < 10 | < 10 | 200 to 1000 | > 30 | > 30 | > 30 | > 30 | > 30 |
| COc1cc2ncc3c(c2cc1-c1cnn(C)c1)n(-c1ccncc1)c(=O)n3C [compound 58, 7-Methoxy-3-methyl-8-(1-methyl-1H-pyrazol-4-yl)-1-pyridin-4-yl-1,3-dihydro-imidazo[4,5-c]quinolin-2-one] | < 10 | < 10 | 200 to 1000 | > 30 | > 30 | > 30 | > 30 | > 30 |
| COc1cc2ncc3c(c2cc1-c1cn[nH]c1)n(-c1c(F)cncc1F)c(=O)n3C [Compound Example 2, 1-(3,5-Difluoropyridin-4-yl)-7-methoxy-3-methyl-8-(1H-pyrazol-4-yl)-1,3-dihydro-imidazo[4,5-c]quinolin-2-one] | < 1 | < 1 | < 200 | > 5 | > 30 | > 30 | > 30 | > 30 |
| COc1cc2ncc3c(c2cc1-c1cn[nH]c1)n(-c1cnn(C)c1)c(=O)n3C [Compound Example 17, 7-Methoxy-3-methyl-1-(1-methyl-1H-pyrazol-4-yl)-8-(1H-pyrazol-4-yl)-1,3-dihydroimidazo[4,5-c] quinolin-2-one] | < 10 | < 1 | < 200 | > 10 | > 30 | > 30 | > 30 | > 30 |
| COc1cc2ncc3c(c2cc1-c1cc(C)[nH]n1)n(-c1ncccc1F)c(=O)n3C [Compound Example 29, 1-(3-Fluoropyridin-2-yl)-7-methoxy-3-methyl-8-(5-methyl-1H-pyrazol-3-yl)-1,3-dihydroimidazo[4,5-c] quinolin-2-one] | < 10 | < 10 | < 200 | > 30 | > 30 | > 30 | > 30 | > 30 |

Reference: US10457677B2 (priority 2015, dated 2019)
